Test results from ChEMBL document CHEMBL5154826, “Discovery of the Clinical Candidate MAK683: An EED-Directed, Allosteric, and Selective PRC2 Inhibitor for the Treatment of Advanced Malignancies” (J Med Chem, 2022).
≈ marks a conversion by molar mass, not a printed value. Calls of active or inactive are those of the source. No cut-off for these calls is given here.

Legend:
[1] = Inhibition of PRC2 (unknown origin) assessed as reduction in H3K27 trimethylation using H3K27Me0 peptide (21 to 44 residues) as substrate by measuring SAH formation by LC-MS analysis; parameters: species or system Homo sapiens
[2] = High throughput solubility of the compound at pH 6.8 after 16 to 24 hrs by MS/MS analysis; format: physicochemical; settings: buffer, time 16-24 hrs
[3] = target: Cytochrome P450 2D6 (Homo sapiens, UniProt P10635); test: Inhibition of CYP2D6 in human liver microsomes using bufuralol as substrate incubated for 10 mins in presence of NADPH by LC-MS/MS analysis; format: ADME, Microsome
Cytochrome P450 2D6, sequence (P10635 whole entry): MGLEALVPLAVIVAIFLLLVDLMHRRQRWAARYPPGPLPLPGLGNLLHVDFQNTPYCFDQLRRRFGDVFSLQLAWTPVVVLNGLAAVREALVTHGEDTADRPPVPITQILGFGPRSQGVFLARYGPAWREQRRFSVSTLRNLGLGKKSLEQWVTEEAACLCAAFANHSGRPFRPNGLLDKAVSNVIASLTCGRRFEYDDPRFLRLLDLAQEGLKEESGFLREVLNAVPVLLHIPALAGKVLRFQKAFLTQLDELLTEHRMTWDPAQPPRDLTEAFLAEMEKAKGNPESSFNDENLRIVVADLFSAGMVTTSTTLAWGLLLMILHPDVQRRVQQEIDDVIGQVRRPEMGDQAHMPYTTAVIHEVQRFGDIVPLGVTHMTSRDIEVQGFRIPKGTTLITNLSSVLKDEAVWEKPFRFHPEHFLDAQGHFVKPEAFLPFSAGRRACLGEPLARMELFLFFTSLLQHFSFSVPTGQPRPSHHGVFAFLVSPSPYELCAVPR

[4] = target: T1, Alpha-2C adrenergic receptor (Homo sapiens, UniProt P18825); test: Inhibition of alpha2c adrenergic receptor (unknown origin)
T1 sequence (P18825 whole entry): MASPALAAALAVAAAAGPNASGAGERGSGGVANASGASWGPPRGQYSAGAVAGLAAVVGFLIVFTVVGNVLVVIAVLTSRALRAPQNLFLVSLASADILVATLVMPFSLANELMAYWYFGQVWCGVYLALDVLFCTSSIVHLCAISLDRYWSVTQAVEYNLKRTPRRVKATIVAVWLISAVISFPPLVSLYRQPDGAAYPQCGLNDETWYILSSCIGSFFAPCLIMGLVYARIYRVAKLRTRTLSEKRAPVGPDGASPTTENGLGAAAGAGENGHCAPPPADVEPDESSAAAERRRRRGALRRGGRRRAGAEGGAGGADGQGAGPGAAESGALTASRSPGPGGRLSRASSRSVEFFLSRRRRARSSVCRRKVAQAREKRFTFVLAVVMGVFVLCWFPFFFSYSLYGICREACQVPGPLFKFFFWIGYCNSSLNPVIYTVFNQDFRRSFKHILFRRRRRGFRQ

[5] = system: KARPAS-422; test: Antiproliferative activity against human KARPAS-422 cells expressing EZH2 mutant assessed as inhibition of cell growth after 14 days by beckman coulter counting method; format: functional; settings: Homo sapiens, KARPAS-422, 336 h; time 14 day
[6] = Lipophilicity, logD of the compound at pH 7.4 by LC with tandem MS analysis; format: physicochemical; settings: buffer, read-out: logD
[7] = Dissociation constant, pKa of compound; format: physicochemical
[8] = target: Cytochrome P450 2C9 (Homo sapiens, UniProt P11712); test: Inhibition of CYP2C9 in human liver microsomes using diclofenac as substrate incubated for 10 mins in presence of NADPH by LC-MS/MS analysis; format: ADME, Microsome
Cytochrome P450 2C9, sequence (P11712 whole entry): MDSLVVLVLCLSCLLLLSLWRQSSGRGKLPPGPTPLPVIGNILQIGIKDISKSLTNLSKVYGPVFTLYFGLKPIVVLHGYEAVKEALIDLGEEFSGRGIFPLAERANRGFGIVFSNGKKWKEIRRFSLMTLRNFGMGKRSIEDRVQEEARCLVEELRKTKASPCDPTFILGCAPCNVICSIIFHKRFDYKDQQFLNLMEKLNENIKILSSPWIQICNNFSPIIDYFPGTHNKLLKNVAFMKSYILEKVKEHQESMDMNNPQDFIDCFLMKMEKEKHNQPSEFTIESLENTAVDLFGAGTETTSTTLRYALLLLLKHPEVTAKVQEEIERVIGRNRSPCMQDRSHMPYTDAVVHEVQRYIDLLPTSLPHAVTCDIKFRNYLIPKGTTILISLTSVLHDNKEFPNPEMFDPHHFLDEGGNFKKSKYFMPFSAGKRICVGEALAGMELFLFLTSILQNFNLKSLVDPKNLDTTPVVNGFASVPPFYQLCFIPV

[9] = target: 3',5'-cyclic-AMP phosphodiesterase 4D (Homo sapiens, UniProt Q08499); test: Inhibition of human Phosphodiesterase 4D
3',5'-cyclic-AMP phosphodiesterase 4D, sequence (Q08499 whole entry): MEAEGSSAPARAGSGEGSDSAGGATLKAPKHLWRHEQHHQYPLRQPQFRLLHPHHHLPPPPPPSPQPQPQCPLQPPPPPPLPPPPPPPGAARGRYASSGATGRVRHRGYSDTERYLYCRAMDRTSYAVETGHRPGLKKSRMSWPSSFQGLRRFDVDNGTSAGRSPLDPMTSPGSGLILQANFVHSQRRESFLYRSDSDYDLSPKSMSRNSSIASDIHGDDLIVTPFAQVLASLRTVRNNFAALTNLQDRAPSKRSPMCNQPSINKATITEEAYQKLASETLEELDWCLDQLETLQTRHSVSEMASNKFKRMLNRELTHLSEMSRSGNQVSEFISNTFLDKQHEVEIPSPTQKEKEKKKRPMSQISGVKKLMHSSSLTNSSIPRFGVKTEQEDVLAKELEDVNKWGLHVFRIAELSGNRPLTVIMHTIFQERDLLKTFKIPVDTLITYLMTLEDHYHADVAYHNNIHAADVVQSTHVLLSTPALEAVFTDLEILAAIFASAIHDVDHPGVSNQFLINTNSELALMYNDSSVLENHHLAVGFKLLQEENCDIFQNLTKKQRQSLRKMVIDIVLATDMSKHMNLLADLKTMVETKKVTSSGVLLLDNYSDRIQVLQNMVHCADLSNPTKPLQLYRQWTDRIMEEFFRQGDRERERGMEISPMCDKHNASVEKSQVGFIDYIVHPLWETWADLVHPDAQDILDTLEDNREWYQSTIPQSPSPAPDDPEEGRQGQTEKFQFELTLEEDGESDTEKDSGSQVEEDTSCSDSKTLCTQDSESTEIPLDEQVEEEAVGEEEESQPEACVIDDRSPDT

[10] = system: Pfeiffer; test: Antiproliferative activity against human Pfeiffer cells assessed as inhibition of cell growth after 6 days by celltitre-glo assay; format: functional; settings: 144 h, time 6 day
[11] = cells; settings: Homo sapiens, G-401, 48 h
Description: Inhibition of PRC2 in human G-401 cells assessed as H3K27 methylation status incubated for 48 hrs by ELISA method

[12] = High throughput solubility of the compound at pH 7 after 16 to 24 hrs by MS/MS analysis; format: physicochemical; settings: buffer, time 16-24 hrs
[13] = High throughput solubility of the compound at pH 4 after 16 to 24 hrs by MS/MS analysis; format: physicochemical; settings: buffer, time 16-24 hrs
[14] = Permeability across apical to basolateral side in human Caco-2 cells at 10 uM incubated for 2 hrs by LC/MS/MS analysis; format: ADME, cell-based; settings: Caco-2, read-out: permeability
[15] = Efflux ratio of apparent permeability across basolateral to apical side over apical to basolateral side in human Caco-2 cells at 10 uM incubated for 2 hrs by LC/MS/MS analysis; format: ADME, cell-based
[16] = Dose normalized AUC in Sprague-Dawley rat at 2 mg/kg, po; format: ADME, organism-based; settings: in vivo
[17] = Terminal half life in Sprague-Dawley rat at 2 mg/kg, po; format: ADME, organism-based; settings: in vivo, read-out: beta t1/2 (converted)
[18] = Oral bioavailability in Sprague-Dawley rat at 2 mg/kg; format: ADME, organism-based; settings: in vivo
[19] = target: Cytochrome P450 3A4 (Homo sapiens, UniProt P08684); test: Inhibition of CYP3A4 in human liver microsomes using midazolam as substrate incubated for 10 mins in presence of NADPH by LC-MS/MS analysis; format: ADME, Microsome
Cytochrome P450 3A4, sequence (P08684 whole entry): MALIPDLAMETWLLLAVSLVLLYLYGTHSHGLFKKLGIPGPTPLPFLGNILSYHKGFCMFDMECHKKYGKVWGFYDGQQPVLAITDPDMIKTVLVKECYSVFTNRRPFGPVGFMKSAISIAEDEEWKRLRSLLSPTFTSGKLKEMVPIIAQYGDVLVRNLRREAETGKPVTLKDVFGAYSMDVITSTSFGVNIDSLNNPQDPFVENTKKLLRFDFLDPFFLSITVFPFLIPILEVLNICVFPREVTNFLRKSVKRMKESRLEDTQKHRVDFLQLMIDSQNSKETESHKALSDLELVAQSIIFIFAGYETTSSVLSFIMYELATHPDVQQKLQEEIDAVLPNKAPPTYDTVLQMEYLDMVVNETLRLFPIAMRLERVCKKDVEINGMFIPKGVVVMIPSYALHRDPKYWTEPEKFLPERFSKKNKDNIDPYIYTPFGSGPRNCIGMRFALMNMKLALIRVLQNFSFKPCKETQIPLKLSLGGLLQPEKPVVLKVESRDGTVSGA

[20] = system: KARPAS-422; test: Antitumor activity against human Karpas-422 cells xenografted Athymic BALB/c nude mouse assessed as effect on tumor growth, at 10 to 300 mg/kg, po bid, treatment started at twenty fifth after implantation of cancer cells measured upto 55 days; format: functional, organism-based; settings: dose 10-300 mg/kg, time <= 55.0 day, DDE = dose-dependent effect
[21] = system: Mus musculus; test: Reduction of […] in tumor of human Karpas-422 cells xenografted Athymic BALB/c nude mouse tumor at 3 to 300 mg/kg, po bid for 10 days; format: functional, organism-based; settings: dose 3-300 mg/kg, time 10.0 day, DDE = dose-dependent effect
[22] = system: Mus musculus; test: Reduction of H3K27 level in tumor of human Karpas-422 cells xenografted Athymic BALB/c nude mouse at 3 to 300 mg/kg, po bid for 21 days; format: functional, organism-based; settings: dose 3-300 mg/kg, time 21.0 day, DDE = dose-dependent effect
[23] = system: Mus musculus; test: Reduction of H3K27 level in tumor of human Karpas-422 cells xenografted Athymic BALB/c nude mouse at 3 to 100 mg/kg, po bid measured after 14 days; format: functional, organism-based; settings: dose 3-100 mg/kg, time 14.0 day, DDE = dose-dependent effect
[24] = system: KARPAS-422; test: Antitumor activity against human Karpas-422 cells xenografted Athymic NTac:NIH-Whn nude rat assessed as inhibition of cell growth at 0.3 to 60 mg/kg, po, qd upto 130 days; format: functional, organism-based; settings: dose 0.3-60 mg/kg, time <= 130.0 day
[25] = system: PBMC; test: In vivo inhibition of PRC2 in PBMC collected from human Karpas-422 cells xenografted Athymic NTac:NIH-Whn nude rat assessed as reduction in H3K27me3 level at 30 mg/kg, po, qd upto 4 weeks by FACS method; format: functional, organism-based; settings: TDE = time-dependent effect
[26] = system: PBMC; test: In vivo inhibition of PRC2 in PBMC collected from human Karpas-422 cells xenografted Athymic NTac:NIH-Whn nude rat assessed as complete recovery of H3K27me3 level at 30 mg/kg, po, qd treated for 4 weeks, followed by 4 weeks recovery period by FACS method; format: functional, organism-based
[27] = system: Mus musculus; test: Reduction of H3K27 level in tumor of human Karpas-422 cells xenografted Athymic BALB/c nude mouse tumor at 20 mg/kg, po qd measured after 14 days; format: functional, organism-based; settings: time 14.0 day

For COc1cccc(F)c1CNc1ccc(-c2cccnc2)c2nncn12, the IC50 [1] was 0.016 µM, the solubility [2] was 22 µM (≈ 7.69 µg/mL) and the IC50 [3] was 0.4 µM.
COc1cccc(F)c1CNc1ccc(-c2cccnc2C)c2nncn12 gave an IC50 [1] of 0.011 µM, a solubility [2] of 265 µM (≈ 96.3 µg/mL) and an IC50 [3] greater than 50 µM.
Work on c1cc(CNc2ncc(-c3ccncc3)c3nncn23)c2c(c1)OCC2 yielded an IC50 [4] greater than 30 µM, an IC50 [1] of 0.017 µM and a GI50 [5] of 0.01 µM. It also gave a logD [6] of 2.5, a pKa [7] of 5.4 and a solubility [2] of 5 µM (≈ 1.72 µg/mL). For the same compound, the IC50 [8] was greater than 50 µM, the IC50 [3] was 0.2 µM and the IC50 [9] was 10 µM.
Work on CN(C)Cc1ccc(-c2cnc(NCc3cccc4c3OCC4)n3cnnc23)cc1 yielded an IC50 [1] of 2600 µM.
CN(C)Cc1ccc(-c2cnc(NCc3cccc4c3CCO4)n3cnnc23)cc1 gave an IC50 [1] of 20 µM, a GI50 [10] of 0.067 µM and an IC50 [11] of 14 µM.
Fc1ccc2c(c1CNc1ncc(-c3cccnc3)c3nncn13)CCO2 showed a solubility [2] of 85 µM (≈ 30.8 µg/mL) and an IC50 [3] of 0.019 µM.
Cc1ncccc1-c1cnc(NCc2c(F)ccc3c2CCO3)n2cnnc12.Cl showed a solubility [12] of 69 µM and a solubility [13] of 494 µM.
In the case of CN(C)Cc1ccc(-c2cnc(NCc3cccc4c3OCO4)n3cnnc23)cc1, the IC50 [1] is reported as 15 µM, the GI50 [10] is reported as 1.3 µM and the IC50 [11] is reported as 260 µM.
For COc1cccc(CNc2ncc(-c3ccc(CN(C)C)cc3)c3nncn23)c1, the IC50 [1] was 110 µM, the GI50 [10] was 2.97 µM and the IC50 [11] was 320 µM.
Compound c1cncc(-c2cnc(NCc3cccc4c3CCO4)n3cnnc23)c1 has an IC50 [4] of 3.9 µM, an IC50 [1] of 0.024 µM and a GI50 [5] of 0.012 µM. It also gave a logD [6] of 2.6, a pKa [7] of 4.5 and a solubility [2] of 15 µM (≈ 5.17 µg/mL). For the same compound, the Papp A→B at 2 h, 10 µM [14] was 30 ×10⁻⁶ cm/s, the efflux ratio at 2 h, 10 µM [15] was 0.96 and the AUC/dose [16] was 5790 nM·h. The half-life [17] was 1.5 h, the bioavailability [18] was 71% and the IC50 [19] was 29 µM. For the same compound, the IC50 [8] was 12 µM, the IC50 [3] was 0.1 µM and the IC50 [9] was 2.6 µM. The IC50 [11] was 0.033 µM.
With Cc1ncccc1-c1cnc(NCc2c(F)ccc3c2CCO3)n2cnnc12 the Activity [20] was “Dde”, the Activity [21] was “Dde” and the Activity [22] was “Dde”. The Activity [23] was “Dde”, the Activity [24] was “Active” and the inhibition [25] was “Tde”. The inhibition [26] was “Active” and the Activity [27] was “Active”.
COc1cccc(F)c1CNc1ccc(-c2ccc(C)nc2C)c2nncn12 gave an IC50 [1] of 0.023 µM, a solubility [2] of 162 µM (≈ 61.1 µg/mL) and an IC50 [3] of 25 µM.
Cc1ccc(-c2cnc(NCc3c(F)ccc4c3CCO4)n3cnnc23)c(C)n1 showed an IC50 [1] of 0.005 µM, a solubility [2] of 308 µM (≈ 120 µg/mL) and an IC50 [3] of 31 µM.
Cc1ccc(-c2cnc(NCc3c(F)ccc4c3CCO4)n3cnnc23)cn1 showed an IC50 [1] of 0.019 µM, a solubility [2] of 112 µM (≈ 42.2 µg/mL) and an IC50 [3] of 7.4 µM.
